# Calls of active or inactive are those of the source. How the calls were made is not given here.
# System: rodent lifetime carcinogenesis bioassay, tumor incidence TD50
# Assay: carcinogenic potency in animals, long-term in vivo studies, CPDB compilation (AID 1745844)
structure (smiles),measurement,setting,value
COc1ccc(N)c(C)c1,TD50,"mouse, strain B6C3F1, females, by gavage, site: any site (literature study), lesion: several types, types named in the paper, dosed 53 weeks, study length 93 weeks",69.2 mg/kg/day
same,TD50,"mouse, strain B6C3F1, females, by gavage, site: liver, lesion: hepatocellular adenoma + hepatocellular carcinoma + neoplastic nodule, dosed 53 weeks, study length 93 weeks",206 mg/kg/day
same,TD50,"mouse, strain B6C3F1, females, by gavage, site: liver, lesion: hepatocellular adenoma + hepatocellular carcinoma, dosed 53 weeks, study length 93 weeks",206 mg/kg/day (inactive)
same,TD50,"mouse, strain B6C3F1, females, by gavage, site: lung, lesion: alveolar/bronchiolar adenoma + alveolar/bronchiolar carcinoma, dosed 53 weeks, study length 93 weeks",250 mg/kg/day
same,TD50,"mouse, strain B6C3F1, males, by gavage, site: any site (literature study), lesion: several types, types named in the paper, dosed 53 weeks, study length 93 weeks",72.2 mg/kg/day
same,TD50,"rat, strain Fischer 344, females, by gavage, site: any site (literature study), lesion: several types, types named in the paper, dosed 77 weeks, study length 109 weeks",51.5 mg/kg/day
same,TD50,"rat, strain Fischer 344, females, by gavage, site: liver, lesion: hepatocellular adenoma + hepatocellular carcinoma + neoplastic nodule, dosed 77 weeks, study length 109 weeks",1100 mg/kg/day
same,TD50,"rat, strain Fischer 344, females, by gavage, site: mammary gland, lesion: fibroadenoma, dosed 77 weeks, study length 109 weeks",52.7 mg/kg/day
same,TD50,"rat, strain Fischer 344, females, by gavage, site: urinary bladder, lesion: transitional-cell carcinoma, dosed 77 weeks, study length 109 weeks",769 mg/kg/day
same,TD50,"rat, strain Fischer 344, males, by gavage, site: any site (literature study), lesion: several types, types named in the paper, dosed 77 weeks, study length 109 weeks",368 mg/kg/day
same,TD50,"rat, strain Fischer 344, males, by gavage, site: liver, lesion: hepatocellular adenoma + hepatocellular carcinoma + neoplastic nodule, dosed 77 weeks, study length 109 weeks",506 mg/kg/day
same,TD50,"rat, strain Fischer 344, males, by gavage, site: urinary bladder, lesion: transitional-cell carcinoma, dosed 77 weeks, study length 109 weeks",470 mg/kg/day
CC1=C[C@H]2[C@@]3(O)[C@H](C)[C@@H](O)[C@]4(O)[C@H]([C@@H]3C=C(CO)C[C@]2(O)C1=O)C4(C)C,carcinogen call,"mouse, strain AKR/J, females, i.p., site: lymphoreticular system, lesion: lymphatic leukemia, dosed 104 weeks, study length 104 weeks",negative (inactive)
same,TD50,"mouse, strain AKR/J, males, i.p., site: lymphoreticular system, lesion: lymphatic leukemia, dosed 104 weeks, study length 104 weeks",8.26 mg/kg/day (inactive)
same,carcinogen call,"mouse, strain BALB/c, females, i.p., site: lymphoreticular system, lesion: one or several types, types not named, dosed 104 weeks, study length 104 weeks",negative (inactive)
same,carcinogen call,"mouse, strain BALB/c, males, i.p., site: lymphoreticular system, lesion: one or several types, types not named, dosed 104 weeks, study length 104 weeks",negative (inactive)
same,carcinogen call,"mouse, strain C3HeB, females, i.p., site: lymphoreticular system, lesion: one or several types, types not named, dosed 104 weeks, study length 104 weeks",negative (inactive)
same,carcinogen call,"mouse, strain C3HeB, males, i.p., site: lymphoreticular system, lesion: one or several types, types not named, dosed 104 weeks, study length 104 weeks",negative (inactive)
same,carcinogen call,"mouse, strain C57BL, females, i.p., site: lymphoreticular system, lesion: one or several types, types not named, dosed 104 weeks, study length 104 weeks",negative (inactive)
same,TD50,"mouse, strain SJL/J, females, i.p., site: lymphoreticular system, lesion: reticulum-cell sarcoma, type B, dosed 104 weeks, study length 104 weeks",92.6 mg/kg/day
same,TD50,"mouse, strain SWR, females, i.p., site: lymphoreticular system, lesion: lymphatic leukemia, dosed 104 weeks, study length 104 weeks",2.21 mg/kg/day
NNCc1ccccc1,TD50,"mouse, strain Swiss albino, females, in drinking water, site: liver, lesion: angiosarcoma, dosed 121 weeks, study length 121 weeks",252 mg/kg/day (inactive)
same,TD50,"mouse, strain Swiss albino, females, in drinking water, site: liver, lesion: several types, types named in the paper, dosed 121 weeks, study length 121 weeks",304 mg/kg/day
same,TD50,"mouse, strain Swiss albino, females, in drinking water, site: lung, lesion: several types, types named in the paper, dosed 121 weeks, study length 121 weeks",85.3 mg/kg/day
same,TD50,"mouse, strain Swiss albino, males, in drinking water, site: liver, lesion: several types, types named in the paper, dosed 100 weeks, study length 100 weeks",86.2 mg/kg/day
same,TD50,"mouse, strain Swiss albino, males, in drinking water, site: lung, lesion: adenoma, dosed 100 weeks, study length 100 weeks",711 mg/kg/day (inactive)
O=NN1CCOC1=O,TD50,"rat, strain MRC-Wistar, males, in drinking water, site: any site (literature study), lesion: one or several types, types not named, dosed 70 weeks, study length 70 weeks",0.335 mg/kg/day
same,carcinogen call,"rat, strain MRC-Wistar, males, in drinking water, site: intestine, lesion: several types, types named in the paper, dosed 64 weeks, study length 64 weeks",positive
same,TD50,"rat, strain MRC-Wistar, males, in drinking water, site: intestine, lesion: several types, types named in the paper, dosed 70 weeks, study length 70 weeks",0.729 mg/kg/day
same,TD50,"rat, strain MRC-Wistar, males, in drinking water, site: liver, lesion: several types, types named in the paper, dosed 64 weeks, study length 64 weeks",0.582 mg/kg/day
same,TD50,"rat, strain MRC-Wistar, males, in drinking water, site: liver, lesion: several types, types named in the paper, dosed 70 weeks, study length 70 weeks",1.15 mg/kg/day
ClCc1ccccc1,TD50,"mouse, strain B6C3F1, females, by gavage, site: forestomach, lesion: carcinoma, dosed 104 weeks, study length 107 weeks",445 mg/kg/day
same,TD50,"mouse, strain B6C3F1, females, by gavage, site: forestomach, lesion: several types, types named in the paper, dosed 104 weeks, study length 107 weeks",81 mg/kg/day
same,TD50,"mouse, strain B6C3F1, females, by gavage, site: lung, lesion: several types, types named in the paper, dosed 104 weeks, study length 107 weeks",337 mg/kg/day
same,TD50,"mouse, strain B6C3F1, males, by gavage, site: all sites, lesion: all vascular tumors, dosed 104 weeks, study length 107 weeks",454 mg/kg/day
same,TD50,"mouse, strain B6C3F1, males, by gavage, site: forestomach, lesion: carcinoma, dosed 104 weeks, study length 107 weeks",221 mg/kg/day
same,TD50,"mouse, strain B6C3F1, males, by gavage, site: forestomach, lesion: several types, types named in the paper, dosed 104 weeks, study length 107 weeks",49.6 mg/kg/day
same,TD50,"mouse, strain B6C3F1, males, by gavage, site: liver, lesion: several types, types named in the paper, dosed 104 weeks, study length 107 weeks",225 mg/kg/day
same,TD50,"rat, strain Fischer 344, females, by gavage, site: liver, lesion: neoplastic nodule, dosed 104 weeks, study length 107 weeks",330 mg/kg/day
same,TD50,"rat, strain Fischer 344, females, by gavage, site: thyroid gland, lesion: several types, types named in the paper, dosed 104 weeks, study length 107 weeks",40.6 mg/kg/day
NC(=O)CCCCn1ccc(NC(N)=NCC(F)(F)F)n1,TD50,"mouse, strain B6C3F1, females, in feed, site: gastric mucosa, lesion: carcinoid tumor, malignant, dosed 91 weeks, study length 91 weeks",956 mg/kg/day
same,TD50,"mouse, strain B6C3F1, males, in feed, site: gastric mucosa, lesion: carcinoid tumor, malignant, dosed 91 weeks, study length 91 weeks",401 mg/kg/day
same,TD50,"rat, strain Sprague-Dawley, females, in feed, site: gastric mucosa, lesion: carcinoid tumor, malignant, dosed 104 weeks, study length 104 weeks",1350 mg/kg/day
same,TD50,"rat, strain Sprague-Dawley, males, in feed, site: gastric mucosa, lesion: carcinoid tumor, malignant, dosed 104 weeks, study length 104 weeks",1030 mg/kg/day
FC(F)Cl,carcinogen call,"mouse, strain Swiss, females, inhaled, site: any site (literature study), lesion: malignant tumor, dosed 78 weeks, study length 104 weeks",negative (inactive)
same,carcinogen call,"mouse, strain Swiss, females, inhaled, site: any site (literature study), lesion: several types, types named in the paper, dosed 78 weeks, study length 104 weeks",negative (inactive)
same,carcinogen call,"mouse, strain Swiss, females, inhaled, site: lung, lesion: adenoma, dosed 78 weeks, study length 104 weeks",negative (inactive)
same,TD50,"mouse, strain Swiss, males, inhaled, site: any site (literature study), lesion: malignant tumor, dosed 78 weeks, study length 104 weeks",98300 mg/kg/day (inactive)
same,carcinogen call,"mouse, strain Swiss, males, inhaled, site: any site (literature study), lesion: several types, types named in the paper, dosed 78 weeks, study length 104 weeks",negative (inactive)
same,carcinogen call,"mouse, strain Swiss, males, inhaled, site: lung, lesion: adenoma, dosed 78 weeks, study length 104 weeks",negative (inactive)
same,TD50,"rat, strain Sprague-Dawley, females, inhaled, site: any site (literature study), lesion: malignant tumor, dosed 104 weeks, study length 104 weeks",20100 mg/kg/day (inactive)
same,TD50,"rat, strain Sprague-Dawley, females, inhaled, site: any site (literature study), lesion: several types, types named in the paper, dosed 104 weeks, study length 104 weeks",26000 mg/kg/day (inactive)
same,carcinogen call,"rat, strain Sprague-Dawley, females, inhaled, site: liver, lesion: angiosarcoma, dosed 104 weeks, study length 104 weeks",negative (inactive)
same,carcinogen call,"rat, strain Sprague-Dawley, males, inhaled, site: any site (literature study), lesion: malignant tumor, dosed 104 weeks, study length 104 weeks",negative (inactive)
same,TD50,"rat, strain Sprague-Dawley, males, inhaled, site: any site (literature study), lesion: several types, types named in the paper, dosed 104 weeks, study length 104 weeks",6540 mg/kg/day (inactive)
same,carcinogen call,"rat, strain Sprague-Dawley, males, inhaled, site: liver, lesion: angiosarcoma, dosed 104 weeks, study length 104 weeks",negative (inactive)
CN(C)c1ccc(C(=C2C=CC(=[N+](C)C)C=C2)c2ccc(N(C)C)cc2)cc1,TD50,"mouse, strain B6C3F1, females, in feed, site: Harderian gland, lesion: adenoma, dosed 107 weeks, study length 107 weeks",305 mg/kg/day
same,TD50,"mouse, strain B6C3F1, females, in feed, site: liver, lesion: hepatocellular adenoma, dosed 78 weeks, study length 78 weeks",115 mg/kg/day
same,TD50,"mouse, strain B6C3F1, females, in feed, site: liver, lesion: hepatocellular adenoma, dosed 107 weeks, study length 107 weeks",75.5 mg/kg/day
same,TD50,"mouse, strain B6C3F1, females, in feed, site: liver, lesion: hepatocellular carcinoma, dosed 78 weeks, study length 78 weeks",343 mg/kg/day
same,TD50,"mouse, strain B6C3F1, females, in feed, site: liver, lesion: hepatocellular carcinoma, dosed 107 weeks, study length 107 weeks",57.9 mg/kg/day
same,carcinogen call,"mouse, strain B6C3F1, females, in feed, site: liver, lesion: one or several types, types not named, dosed 52 weeks, study length 52 weeks",negative (inactive)
same,TD50,"mouse, strain B6C3F1, females, in feed, site: ovary, lesion: reticulum-cell sarcoma, type A, dosed 107 weeks, study length 107 weeks",912 mg/kg/day
same,TD50,"mouse, strain B6C3F1, females, in feed, site: urinary bladder, lesion: reticulum-cell sarcoma, type A, dosed 107 weeks, study length 107 weeks",834 mg/kg/day
same,TD50,"mouse, strain B6C3F1, females, in feed, site: uterus, lesion: reticulum-cell sarcoma, type A, dosed 107 weeks, study length 107 weeks",413 mg/kg/day
same,TD50,"mouse, strain B6C3F1, females, in feed, site: vagina, lesion: reticulum-cell sarcoma, type A, dosed 107 weeks, study length 107 weeks",668 mg/kg/day
same,TD50,"mouse, strain B6C3F1, males, in feed, site: Harderian gland, lesion: adenoma, dosed 107 weeks, study length 107 weeks",615 mg/kg/day
same,carcinogen call,"mouse, strain B6C3F1, males, in feed, site: liver, lesion: hepatocellular adenoma, dosed 52 weeks, study length 52 weeks",negative (inactive)
same,TD50,"mouse, strain B6C3F1, males, in feed, site: liver, lesion: hepatocellular adenoma, dosed 78 weeks, study length 78 weeks",636 mg/kg/day (inactive)
same,TD50,"mouse, strain B6C3F1, males, in feed, site: liver, lesion: hepatocellular adenoma, dosed 107 weeks, study length 107 weeks",139 mg/kg/day
same,carcinogen call,"mouse, strain B6C3F1, males, in feed, site: liver, lesion: hepatocellular carcinoma, dosed 78 weeks, study length 78 weeks",negative (inactive)
same,TD50,"mouse, strain B6C3F1, males, in feed, site: liver, lesion: hepatocellular carcinoma, dosed 107 weeks, study length 107 weeks",222 mg/kg/day

# Source: PubChem BioAssay AID1745844 (Carcinogenic Potency Database (CPDB), 2022)
